Entries after “also recorded” stand apart in the source; their conditions may differ.
What was measured:
[1] = test system: Djndk, Djmpka, DjAdb-Ba; experiment: Gene expression in regenerating planaria blastemas (real-time PCR); format: in vivo, Dugesia japonica; details: 100 nM, 2 days post injury
Description: Whole mount in situ hybridization, real-time PCR and dsRNA synthesis: Regenerating blastemas were obtained from planaria after surgical injury and placed in Trizol (Ambion). RNA was isolated following manufacturer's instructions and cDNA was synthesized essentially as in (16) using random hexamers, Oligo(dt)20 and Superscript III (Invitrogen), Relative quantitative analysis for each gene product was carried out using an ABI 7900ht fast real-time PCR machine (Applied Biosystems). DjGapdh—Forward: […] (SEQ ID NO. 1); Reverse: […] (SEQ ID NO. 2). Djsfpr-A—Forward: […] (SEQ ID NO. 3); Reverse: […] (SEQ ID NO. 4). Djndk—Forward: […] (SEQ ID NO. 5); Reverse: […] (SEQ ID NO. 6). DjmpkA—Forward: […] (SEQ ID NO. 7); Reverse: […] (SEQ ID NO. 8). DfAdb-Ba—Forward: […] (SEQ ID NO. 9); Reverse: […] (SEQ ID NO. 10). DjGst—Forward: […] (SEQ ID NO. 11); Reverse: […] (SEQ ID NO. 12). The constitutively transcribed housekeeping gene, GAPDH, was employed to normalized target gene expression levels as in (16).
Planaria regeneration: Planaria (Dugesia japonica; Dj) were kept in water (Poland Spring) at 18° C. […] Tissue regeneration was assessed as in (12). […] The extent of tissue regeneration during a 6-day period for D. japonica was determined using captured images of the regenerating blastemas at regular intervals (24 h). These images were analyzed using ImageJ software. […]

[2] = test system: Mice (hind-limb ischemia/reperfusion); experiment: Hind-limb ischemia reperfusion, second organ reflow injury; format: in vivo, mouse; details: for protection from leukocyte-mediated tissue damage: SCI (50 ng) plus SCII (50 ng) i.v. 10 min prior to reperfusion, lung H&E; for Ki67 and RSPO3 in lung sections (immunofluorescence), tissue repair / plasma eicosanoid levels, including LTB4, LTC4 and TxB2: SCI plus SCII 50 ng each i.v.
Description: Ischemia Reperfusion: Mice were anesthetized by intraperitoneal (i.p.) injection of […]. To initiate hind-limb ischemia, tourniquets consisting of a rubber band were placed on each hind limb. Ten min prior to the initiation of reperfusion, Vehicle (saline containing 0.1% EtOH), SCI (50 ng) plus SCII (50 ng) or Resolvin D1 (500 ng) were administered by intravenous injection. At the end of reperfusion (3 h), mice were euthanized, blood collected via cardiac puncture and plasma isolated for lipid mediator metabololipidomics. Lungs were harvested, left lungs were frozen in liquid nitrogen and stored at −80° C. Right lungs were stored in 10% (v/v) buffered formalin and processed for histology and hematoxylin and eosin (H&E) staining by the Children's Hospital Boston Core Histology Facility, imaged using a Keyence BZ-9000 microscope and BZ II imaging software (Keyence) Expression of Ki67 and Roof plate-specific Spondin-3 (RSPO3) were assessed by immunofluorescence staining. Briefly, sections were deparafinized in xylene and rehydrated, then blocked in 10% horse serum and stained with either rat anti-mouse RSPON3 antibody (R&D Systems) for 1 h at room temperature and then with sheep anti-rat Alexa-594 conjugated antibody (BioLegend), or with rabbit anti-mouse antibody (Abeam) and then with donkey anti-rabbit Alexa-488 antibody (BioLegend). Slides were mounted in Vector Shield mounting solution with DAPI (Vector Labs) and immunofluorescence assessed using a Zeiss LSM 510 Meta confocal microscope. Images were processed using ImageJ software (National Institutes of Health) and Adobe Photoshop CS6 (Adobe Systems incorporated) software. Frozen lungs were gently dispersed, centrifuged, and tissue myeloperoxidase (MPO) levels were determined using mouse MPO ELISA (R&D Systems).

[3] = test system: Planaria (Dugesia japonica); experiment: Planaria tissue regeneration after surgical injury (head resection), tissue regeneration index; format: in vivo; details: for T50: either SCI or SCII alone, concentration dependent, vehicle ~5 days; for tissue regeneration / head regrowth (in words): surgically injured planaria vs vehicle
Description: Planaria regeneration: Planaria (Dugesia japonica; Dj) were kept in water (Poland Spring) at 18° C. All animals were starved for at least 7 days prior to experiments. Tissue regeneration was assessed as in (12). Briefly, planaria were subject to head resection post-occularly (surgical Injury). The posterior portions of the planaria were then placed in spring water containing 0.01% EtOH, SPE-C isolate fraction 2 from resolving exudates or milk at the indicated dilutions, U0126 (Extracellular signal-regulated kinases (ERK) inhibitor; Cell Signaling Technology; 25 μM (16)), U0126 plus resolving exudates SPE-C isolates fraction 2, SCI (100 nM), SCII (100 nM), lipoxygenase inhibitor (baicalein, 10 μM) or lipoxygenase inhibitor plus SCI and SCII (100 nM). The extent of tissue regeneration during a 6-day period for D. japonica was determined using captured images of the regenerating blastemas at regular intervals (24 h). These images were analyzed using ImageJ software. A tissue regeneration index (TRI) was employed that took into consideration the size of the regenerated tissue total area (A) and the post-ocular width W of the animal, where TRI=A/W. In determined experiments, planaria were injured and incubated in water, containing 10^8CFU E. coli (serotype O6:K2:H1) or with E. coli plus SCI and SCII (100 nM), and tissue regeneration indices assessed as described above.
Planaria regeneration: Planaria (Dugesia japonica) were kept in water (Poland. Spring; Nestlé Waters North America, Stamford, Conn., USA) at 18° C. All animals were starved for at least 7 d before the experiments. Tissue regeneration was assessed as described previously (10). In brief, planaria were subjected to head resection postoccularly (surgical injury). The posterior portions of the planaria were then placed in spring water containing 0.01% EtOH, 16-glutathionyl, 17-hydroxyl-4Z,7Z,10,12,14,19Z-docosahexaenoic acid plus 16-cysteinylglycinyl, 7-hydroxyl-4Z,7Z,10,12,14,19Z-docosahexaenoic acid (50 nM; each) or 8-gutathionyl, 7,17-dihydroxyl-4Z9,11,13Z,15E,19Z-docosahexaenoic acid plus 8-cysteinylglycinyl, 7,17-dihydroxyl-4Z,9,11,13Z,15E,19Z-docosahexaenoic acid (50 nM, each). The extent of tissue regeneration during a 6-d period was determined using captured images of the regenerating blastemas at regular intervals (24 h). These images were analyzed using ImageJ software (NIH, Bethesda, Md., USA). A tissue regeneration index (TRI) was used that took into consideration the size of the regenerated tissue total area (A) and the postocular width (W), where TRI=A/W (10).

Compound | genes involved in head regeneration [1] | protection from leukocyte-mediated tissue damage [2] | Ki67 and RSPO3 in lung sections (immunofluorescence), tissue repair [2] | plasma eicosanoid levels, including LTB4, LTC4 and TxB2 [2] | T50 [3] [days] | tissue regeneration / head regrowth (in words) [3]
13-glutathionyl, 14-hydroxy-docosahexaenoic acid [SCI] | upregulated | Protects from neutrophil | Promotes tissue repair | Reduces systemic | ~3.5 | accelerated head regrowth; also recorded: Promotes tissue
CCC=CCC=CCC(O)C(C=CC=CC=CCC=CCCC(=O)O)SCC(N)C(=O)NCC(=O)O (stereo not drawn) [SCII, 13-cysteinylglycinyl, 14-hydroxy-docosahexaenoic acid] | upregulated | Protects from neutrophil | Promotes tissue repair | Reduces systemic | ~3.5 | accelerated head regrowth; also recorded: Promotes tissue

Reference: patent US11135228B2, “Cysteinyl-proresolving mediators that promote resolution of infection and organ protection” (THE BRIGHAM AND WOMEN'S HOSPITAL, priority 2014, dated 2021)
